Among the data in patent US9394297B2, “Amides as pim inhibitors” (AMGEN INC., priority 2012, dated 2016) are IC50 values, retold here.

For experiment [1], the target named is T1, Pim-2 (Homo sapiens (Human), UniProt Q9P1W9). Kind of experiment: Pim enzyme assay (HTRF, 96-well), Pim-2. It is filed as biochemical. Particulars: full length recombinant Pim-2, biotinylated-BAD (S112) peptide, 10-point curve, 45 min RT, read-out: Pim-2 IC50 IP. From the text:
(§1) These cDNAs were used as templates in PCR reactions to produce full-length DNA clones of the PIMs. […] PCR products were digested with BclI and EcoRI for Pim-1 and BamHI and EcoRI for Pim-2 and ligated into a modified baculovirus transfer vector (pFastBac1) cleaved with BamHI and EcoRI. For bacterial expression, the same cleaved PCR products encoding Pim-1 or Pim-2 were ligated into a modified E. coli expression vector pET28(a) cleaved with BamHI and EcoRI. Amino-terminal hexahistidine tags followed by a thrombin cleavage site were previously added to the vectors using standard methods of molecular biology.
(§2) Recombinant baculoviruses expressing Pim-1 or Pim-2 were made using standard methods (Fastbac manual, Invitrogen, Carlsbad, Calif.). […] Cells were harvested by centrifugation and frozen at −80 C. For E. coli expression, cells carrying pET28-His6-Th-Pim-1 or pET28-His6-Th-Pim-2 were picked from a single colony and grown o/n in LB media. The o/n culture was used to inoculate a 2 liter flask with 500 mL media. This was grown o/n and used to inoculate 15-20 liters of Terrific Broth in a New Brunswick Scientific fermentor. The E. coli were grown at 37° C. to and OD600 >1.6. The temperature was dropped to 18° C. and o/n expression was induced with 0.5 mM IPTG. Cells were harvested by centrifugation and frozen at −80° C.
(§3) The slurry was centrifuged at 1,000×g for 5 min, the supernatant decanted, and the resin suspended in 40 mL of lysis wash buffer (lysis buffer at 0.75 M NaCl). This step was repeated 3× and the resin was transferred to a 2.5 cm glass column. Ten column volumes of wash buffer (0.05 M HEPES, pH 8.0, 0.1 M NaCl, 0.01 M 2-mercaptoethanol, 10%(w/v) glycerol) were applied to the resin followed by 10 column volumes of elution buffer (0.05 M HEPES, pH 8.0, 0.25 M NaCl, 0.01 M 2-mercaptoethanol, 10%(w/v) glycerol, 0.1 M imidazole). Fractions were analyzed by SDS-PAGE and those containing the protein of interest were pooled and concentrated. The concentrated protein was applied to an Amersham Superdex 75 (XK 26/60) column equilibrated in 0.025 M Tris-HCl, pH 7.5, 0.1 M NaCl, 0.01 M 2-mercaptoethanol, 10% (w/v) glycerol. […] Fractions containing the monomeric protein of interest were pooled, concentrated to ˜2 mg/mL, and stored at −80° C.
(§4) The phosphorylation of biotinylated-BAD (S112) peptide by full length recombinant Pim-1, Pim-2, or Pim-3 protein was detected with streptavidin:Allophycocyanin (APC) conjugate and a europium (Eu) labeled antibody directed against phosphorylated-BAD (S112). […] The fluorescence is directly proportional to the amount of phosphorylated BAD peptide present in the reaction. […] A reference compound was included on each assay plate in order to validate that plate; on one plate of every assay run, two additional reference compounds were included. The final buffer conditions were as follows: 60 mM Hepes, pH 7.0, 0.05% BSA, 2 mM DTT. Incubations were carried out at RT (22° C.) for 2 h for Pim-1, 1 hour and 30 min for Pim-3, and 45 min for Pim-2. The reaction was stopped by the addition of 3 mM EDTA, and fluorescence was measured by an HTRF® Rubystar microplate reader. For each plate, percent of control (POC) values were calculated for each well. Values for the IC50 IP were estimated using a standard 4-parameter logistic model.

Experiment [2] addresses T2, Pim-1 (Homo sapiens (Human), UniProt P11309). The experiment in a line: Pim-Mn enzyme assay (HTRF, 384-well), Pim-1. It is filed as biochemical. The settings on record: Pim-1 enzyme 5 pM, ATP 1.5 μM, BAD (S112) 0.5 μM, HTRF, 22-point curve; read-out: Pim-1-Mn IC50 IP. For orientation: Time-resolved FRET reads energy transfer from a long-lived donor to a nearby acceptor.

Experiment [3] addresses T1, Pim-2. Kind of experiment: Pim-Mn enzyme assay (HTRF, 384-well), Pim-2. It is filed as biochemical. Particulars: Pim-2 enzyme 0.5 pM, ATP 1.5 μM, BAD (S112) 0.5 μM, HTRF, 22-point curve; read-out: Pim-2-Mn IC50 IP.
Experiment [4] concerns the target T2, Pim-1. The experiment in a line: Pim enzyme assay (HTRF, 96-well), Pim-1. The class given is biochemical. Particulars: full length recombinant Pim-1, biotinylated-BAD (S112) peptide, 10-point curve, 2 h RT, read-out: Pim-1 IC50 IP.
Description: as §1, §2, §3, §4

Experiment [5] relates to KMS-12-BM myeloma cell line. The experiment in a line: Pim KMS-12 cell assay (phospho-BAD S112 / total BAD, MSD).
Setting [6] is: Homo sapiens, KMS-12-BM, read-out: KMS-12-BM IC50 IP, KMS-12-BM cells, phospho-BAD (S112) vs total BAD, 1 hour 50 min with compound.

Structures are written as SMILES. Like-named read-outs stand apart in the source and are kept apart here.

T2 sequence (P11309 whole entry): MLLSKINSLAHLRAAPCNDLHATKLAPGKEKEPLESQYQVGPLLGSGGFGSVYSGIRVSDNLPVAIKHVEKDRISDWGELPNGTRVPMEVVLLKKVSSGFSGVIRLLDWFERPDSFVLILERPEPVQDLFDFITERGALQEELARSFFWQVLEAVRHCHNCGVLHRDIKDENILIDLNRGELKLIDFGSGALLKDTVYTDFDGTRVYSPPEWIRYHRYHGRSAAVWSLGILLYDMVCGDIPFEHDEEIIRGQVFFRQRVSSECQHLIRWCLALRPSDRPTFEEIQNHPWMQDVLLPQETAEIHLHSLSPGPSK
T1 sequence (Q9P1W9 whole entry): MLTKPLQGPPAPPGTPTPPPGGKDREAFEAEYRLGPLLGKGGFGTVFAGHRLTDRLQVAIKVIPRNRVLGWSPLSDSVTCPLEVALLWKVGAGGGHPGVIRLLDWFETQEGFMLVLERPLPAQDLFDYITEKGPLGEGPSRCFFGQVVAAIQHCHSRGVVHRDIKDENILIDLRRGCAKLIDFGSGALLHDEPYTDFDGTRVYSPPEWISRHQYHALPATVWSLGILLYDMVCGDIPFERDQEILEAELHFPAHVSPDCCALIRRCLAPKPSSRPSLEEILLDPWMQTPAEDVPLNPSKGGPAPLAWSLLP

One may read the IC50 as the concentration that gives 50% inhibition. In the case of `CC1CNC(=O)c2cc(-c3cccc4ccc(Cl)nc34)[nH]c21` (racemic) [Example 27, rac-2-(2-chloroquinolin-8-yl)-7-methyl-6,7-dihydro-1H-pyrrolo[3,2-c]pyridin-4(5H)-one], the half-inhibitory concentration (IC50) on Pim-2 [1] is 0.366 µM.
Still for that read-out and setting: the value for `CC1CNC(=O)c2cc(-c3cccc4ccc(Oc5ccccc5)nc34)[nH]c21` (racemic) [Example 28, rac-7-methyl-2-(2-phenoxyquinolin-8-yl)-6,7-dihydro-1H-pyrrolo[3,2-c]pyridin-4(5H)-one] was 0.061 µM; that for `CC(Oc1ccc2cccc(-c3cc4c([nH]3)CCNC4=O)c2n1)C(F)(F)F` (racemic) [Example 79, rac-2-(2-((1,1,1-trifluoropropan-2-yl)oxy)quinolin-8-yl)-6,7-dihydro-1H-pyrrolo[3,2-c]pyridin-4(5H)-one] was 0.204 µM.
As for `CC(C)CC1CNC(=O)c2cc(-c3cccc4cccnc34)[nH]c21` (racemic) [Example 125, rac-7-isobutyl-2-(quinolin-8-yl)-6,7-dihydro-1H-pyrrolo[3,2-c]pyridin-4(5H)-one], the figures for the half-inhibitory concentration (IC50) at Pim-1 [2], at Pim-2 [3] and on Pim-1 [4] were 0.0211 µM, 0.278 µM and 0.0418 µM, respectively.
As for `Cc1nc2cccc(-c3cc4c([nH]3)CCNC4=O)c2nc1NC1CCC(=O)N(C)C1` (racemic) [Example 195, rac-2-(2-methyl-3-((1-methyl-6-oxopiperidin-3-yl)amino)quinoxalin-5-yl)-6,7-dihydro-1H-pyrrolo[3,2-c]pyridin-4(5H)-one 2,2,2-trifluoroacetate], the IC50 on Pim-2 [1] was 0.177 µM.
`CC1Cc2[nH]c(-c3cccc4ccc(Nc5ccccc5)nc34)cc2C(=O)N1` (racemic) [Example 237, rac-6-methyl-2-(2-(phenylamino)quinolin-8-yl)-6,7-dihydro-1H-pyrrolo[3,2-c]pyridin-4(5H)-one]: the half-inhibitory concentration (IC50) is 6.58 µM in experiment [5] (setting [6]) and 0.0342 µM on Pim-2 [1].
Turning to `CCC1CNC(=O)c2cc(-c3cccc4cc(C)c(Nc5ccccc5)nc34)[nH]c21` (racemic) [Example 250, rac-7-ethyl-2-(3-methyl-2-(phenylamino)quinolin-8-yl)-6,7-dihydro-1H-pyrrolo[3,2-c]pyridin-4(5H)-one], the IC50 in experiment [5] (setting [6]) was found to be 2.82 µM; on Pim-1 [4], 0.001 µM.
As to `CC1Cc2[nH]c(-c3cccc4ccc(Nc5ccccc5)nc34)cc2C(=O)N1` (single isomer, unassigned) [Example 33, 6-methyl-2-(2-(phenylamino)quinolin-8-yl)-6,7-dihydro-1H-pyrrolo[3,2-c]pyridin-4(5H)-one], the concentration for half-maximal inhibition (IC50) was 4.1 µM in experiment [5] (setting [6]) and 0.0353 µM on Pim-2 [1].
As to `CC1Cc2[nH]c(-c3cccc4ccc(Nc5ccccc5)nc34)cc2C(=O)N1` (single isomer, unassigned) [Example 34, 6-methyl-2-(2-(phenylamino)quinolin-8-yl)-6,7-dihydro-1H-pyrrolo[3,2-c]pyridin-4(5H)-one], at Pim-2 [1], the half-inhibitory concentration (IC50) is 0.0733 µM.
On to `CCC1CNC(=O)c2cc(-c3cccc4cc(C)c(Nc5ccccc5)nc34)[nH]c21` (single isomer, unassigned) [Example 117, 7-ethyl-2-(3-methyl-2-(phenylamino)quinolin-8-yl)-6,7-dihydro-1H-pyrrolo[3,2-c]pyridin-4(5H)-one], for which the half-inhibitory concentration (IC50) in experiment [5] (setting [6]) was determined as 3.15 µM; at Pim-1 [4] it was 0.0006 µM.
Take `CCC1CNC(=O)c2cc(-c3cccc4cc(C)c(Nc5ccccc5)nc34)[nH]c21` (single isomer, unassigned) [Example 118, 7-ethyl-2-(3-methyl-2-(phenylamino)quinolin-8-yl)-6,7-dihydro-1H-pyrrolo[3,2-c]pyridin-4(5H)-one]: the IC50 in experiment [5] (read-out: KMS-12-BM IC50 IP, KMS-12-BM cells, phospho-BAD (S112) vs total BAD, 1 hour 50 min with compound) was 5.21 µM; at Pim-1 [4], 0.0032 µM.
On to `O=C1NCCc2[nH]c(-c3cccc4ccc(Sc5ccccc5)nc34)cc21` [Example 5, 2-(2-(phenylthio)quinolin-8-yl)-6,7-dihydro-1H-pyrrolo[3,2-c]pyridin-4(5H)-one], for which the IC50 turned out to be 5.7 µM in experiment [5] (setting [6]) and 0.0115 µM at Pim-2 [1].
For `COCCNC(=O)c1ccc2cccc(-c3cc4c([nH]3)CCNC4=O)c2n1` [Example 96, N-(2-methoxyethyl)-8-(4-oxo-4,5,6,7-tetrahydro-1H-pyrrolo[3,2-c]pyridin-2-yl)quinoline-2-carboxamide], the IC50 on Pim-1 [4] turned out to be 0.283 µM.
Still for that read-out and setting: the same measure for `CN1CCN(C(=O)c2ccc3cccc(-c4cc5c([nH]4)CCNC5=O)c3n2)CC1` [Example 97, 2-(2-(4-methylpiperazine-1-carbonyl)quinolin-8-yl)-6,7-dihydro-1H-pyrrolo[3,2-c]pyridin-4(5H)-one]: 0.227 µM.
In the case of `O=C1NCCc2[nH]c(-c3cccc4ccc(Oc5cccc(O)c5)nc34)cc21` [Example 109, 2-(2-(3-hydroxyphenoxy)quinolin-8-yl)-6,7-dihydro-1H-pyrrolo[3,2-c]pyridin-4(5H)-one], the IC50 in experiment [5] (setting [6]) was 8.81 µM; at Pim-2 [1] it was 0.0158 µM.
The like results for `O=C1NCCc2[nH]c(-c3cccc4ccc(C5(c6ccccc6)CC5)nc34)cc21` [Example 114, 2-(2-(1-phenylcyclopropyl)quinolin-8-yl)-6,7-dihydro-1H-pyrrolo[3,2-c]pyridin-4(5H)-one] were, in that order, 4.18 µM and 0.0089 µM.
As for `Cc1nc2cccc(-c3cc4c([nH]3)CCNC4=O)c2nc1F` [Example 126, 2-(3-fluoro-2-methylquinoxalin-5-yl)-6,7-dihydro-1H-pyrrolo[3,2-c]pyridin-4(5H)-one], the 50% inhibitory concentration (IC50) on Pim-2 [1] was greater than 1 µM.
Consider `Cc1nc2cccc(-c3cc4c([nH]3)CCNC4=O)c2nc1NC1CCCCCC1` [Example 134, 2-(3-(cycloheptylamino)-2-methylquinoxalin-5-yl)-6,7-dihydro-1H-pyrrolo[3,2-c]pyridin-4(5H)-one], for which, on Pim-1 [4], the 50% inhibitory concentration (IC50) amounted to 0.0089 µM.
Same read-out and setting: the value for `Cn1cc(-c2cccc3ccc(Nc4ccccc4)nc23)cc1C(N)=O` [Example 164, 1-methyl-4-(2-(phenylamino)quinolin-8-yl)-1H-pyrrole-2-carboxamide] was 0.243 µM; that for `O=C1NCCn2cc(-c3cccc4ccc(C(=O)N5CCCC5)nc34)cc21` [Example 168, 7-(2-(pyrrolidine-1-carbonyl)quinolin-8-yl)-3,4-dihydropyrrolo[1,2-a]pyrazin-1(2H)-one] was 0.608 µM.
For `CCCNc1nc2c(-c3cc4c([nH]3)CCNC4=O)cccc2nc1C` [Example 191, 2-(2-methyl-3-(propylamino)-5-quinoxalinyl)-1,5,6,7-tetrahydro-4H-pyrrolo[3,2-c]pyridin-4-one], the concentration for half-maximal inhibition (IC50) is 0.376 µM in experiment [5] (setting [6]) and 0.0066 µM at Pim-2 [1].
Regarding `Cc1nc2cccc(-c3cc4n(c3)CCNC4=O)c2nc1NC1CC1` [Example 233, 7-(3-(cyclopropylamino)-2-methylquinoxalin-5-yl)-3,4-dihydropyrrolo[1,2-a]pyrazin-1(2H)-one 2,2,2-trifluoroacetate], the values for the 50% inhibitory concentration (IC50) (at Pim-1 [2]; in experiment [5] (setting [6]); at Pim-1 [4]) were 0.025 µM, 0.621 µM and 0.0446 µM, respectively.
